Data taken from article PMC12226049, “Imlunestrant a next-generation oral SERD overcomes ESR1 mutant resistance in estrogen receptor–positive breast cancer” (JCI Insight, 2025).

Target: T1, Estrogen receptor α (ER) (Homo sapiens, UniProt P03372, Y537S)
T1 construct: gene ESR1; HA-tagged ER mutant, doxycycline-inducible in MCF7
T1 sequence (P03372 1-595 Y537S): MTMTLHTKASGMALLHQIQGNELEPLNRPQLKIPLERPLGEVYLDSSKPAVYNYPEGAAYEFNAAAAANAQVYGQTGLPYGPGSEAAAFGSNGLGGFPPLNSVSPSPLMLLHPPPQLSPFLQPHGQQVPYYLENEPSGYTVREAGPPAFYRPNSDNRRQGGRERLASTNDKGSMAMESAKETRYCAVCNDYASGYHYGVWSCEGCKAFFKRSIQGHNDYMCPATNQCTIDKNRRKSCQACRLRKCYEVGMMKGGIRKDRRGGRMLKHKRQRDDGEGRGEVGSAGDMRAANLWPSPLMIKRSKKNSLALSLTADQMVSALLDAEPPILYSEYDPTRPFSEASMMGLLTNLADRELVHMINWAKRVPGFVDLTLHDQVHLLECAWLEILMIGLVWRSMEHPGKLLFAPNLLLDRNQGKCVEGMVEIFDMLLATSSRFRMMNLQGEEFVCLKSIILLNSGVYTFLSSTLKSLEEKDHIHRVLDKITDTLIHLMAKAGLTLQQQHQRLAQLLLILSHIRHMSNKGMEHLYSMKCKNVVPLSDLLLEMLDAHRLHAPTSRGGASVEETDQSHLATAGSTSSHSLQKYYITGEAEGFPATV
Test: degradation of HA-tagged ER-Y537S by western blot in MCF7 cells ([…])
Assay type: cell-based

Compound: Oc1ccc2c3c(cnc2c1)-c1ccc(C(F)(F)F)cc1O[C@@H]3c1ccc(OCCN2CC(CF)C2)cc1 [IML, imlunestrant]
- degradation of HA-tagged ER-Y537S by western blot in MCF7 cells (100 nM): mutant-ER protein degradation was superior with imlunestrant treatment versus fulvestrant
